Reference: patent US20240261315A1 (Omikron Italia S.r.l., priority 2021, published 2024)

Experiments:
[1] = tested on: db/db mice; test: SD-OCT measurement of retinal layer thickness in db/db mice; assay type: in vivo; conditions: 15 days oral treatment; for GC/IPL layer thickness / INL layer thickness / RNFL layer thickness: SD-OCT; for alteration in the thickness of retinal layers: vs placebo or healthy control
Text: (§1) The db/db mice have a mutation in the leptin receptor gene and they are an animal model of retinal neurodegeneration. Such model is useful to mime the pathophysiological events which are found in neurodegenerative pathologies such as glaucoma.
(§2) 20 db/db […] (BKS.Cg-+Leprdb/+Leprdb/OlaHsd, males, 10 weeks) were randomized in 5 groups and treated for 15 days by oral route with oral solutions based on: • 1. Citicoline 0.5% (Cit.) in 10% lactose solution administered with nasogastric tube (SNG); • 2. […] 10% lactose solution (Placebo) administered with SNG; • 5. Healthy, non-diabetic control (Control).
On day 15, 1 hour after the administration of the several treatments, the mice were subjected to (i) very high-resolution Spectral Domain Optical Coherence Tomography (SD-OCT), to obtain, in vivo, detailed images relating to the morphology of the different retinal layers. The mice were subjected to anaesthesia induced by single intraperitoneal injection of 80 mg/ml Ketamine, xylazine 12 mg/ml (Sigma-Adrich). Subsequently, to induce mydriasis, one single drop of 0.5% tropicamide was instilled and then each mouse positioned in front of the objective of OCT.
For all animals only the right eye was examined and the average obtained from three consecutive retinal scanning for each eye was considered for each layer. The OCT images were acquired through bidimensional scanning (B-scan) combined to noise reduction software with ART (automatic real time) and with a visual field of 30 degrees focalized on the head of the optic nerve. After OCT examination the animals were sacrificed by cervical dislocation and the eyes immediately enucleated.

[2] = tested on: db/db mice; test: Full field electroretinogram (ffERG) in db/db mice; assay type: in vivo; conditions: stimuli 10 and 40 cd s/m2, vs Placebo
Text: as §1, §2
Through (ii) full field Electroretinogram (ffERG) the electrical activity and then the functionality of the retinal cells were evaluated. The recordings were measured by using ERG platform of Ganzfeld (Phoenix Research Laboratories, Pleasanton, CA, USA) and according to the recommendations of ISCEV (International Society for Clinical Electrophysiology of Vision).

[3] = tested on: patients affected by open-angle glaucoma; test: Clinical observation: visual field testing by automatic perimetry (MD); assay type: in vivo, human; conditions: for change in MD: 6 months, vs baseline or not treated group; for MD: after 6 months of treatment, in addition to hypotensive therapy, 3 patients
Protocol: 12 randomized patients were included in 4 groups: • CIT. GROUP-3 patients treated with citicoline in oral solution 10 ml/die corresponding to 500 mg/die of citicoline, in addition to the hypotensive therapy; • NIC. […] The patients were treated and followed for 6 months. At baseline and after 6 months of treatment complete eye examination including visual acuity, control of the intraocular pressure (IOP) with Goldmann tonometry (GAT); visual field testing, electro-functional and morphological examination were performed. (1) The visual field testing was performed with automatic perimetry (HFA, Sita Standard 24-2 protocol; Zeiss, San Leandro, CA, USA). Such analysis represents the gold standard for diagnosis and follow-up of the glaucomatous patient and allows to represent graphically the extension in the space of the visual capability, by measuring even the peripheral vison thereof. Two analyses on each examination were performed and the second test was considered for the analysis. To perform the test, the patients were positioned in front of the instrument. After having rested forehead and chin inside the dome, with the covered unexamined eye, they started to fix a central target and pressed a button whenever they perceived against themselves aluminous stimulus, even if with poor intensity. MD was considered as perimetric index.

[4] = tested on: visual cortex; test: Clinical observation: electro-functional test, PEV visual evoked potentials; assay type: in vivo, human; conditions: after 6 months of treatment, in addition to hypotensive therapy, 3 patients
Protocol: 12 randomized patients were included in 4 groups: • CIT. GROUP-3 patients treated with citicoline in oral solution 10 ml/die corresponding to 500 mg/die of citicoline, in addition to the hypotensive therapy; • NIC. […] The patients were treated and followed for 6 months. At baseline and after 6 months of treatment complete eye examination including visual acuity, control of the intraocular pressure (IOP) with Goldmann tonometry (GAT); visual field testing, electro-functional and morphological examination were performed. Then (2) electro-functional test was performed: electroretinogram from PERG pattern and of the PEV visual evoked potentials to evaluate the bioelectric responses respectively of the retinal ganglion cells and of the visual cortex evoked from the visual stimuli. The patients were positioned in an acoustically insulated semi-dark room, in front of the display surrounded by a uniform field of luminance of 5 cd/m2. […] The signal to PERG and PEV was recorded by a small electrode of Ag/AgCl positioned respectively above the lower eyelid and on the scalp. […] The peak-peak widths were measured at PERG P50-N95 for each wave. […] During a recording session, simultaneous PERG and PEV were recorded at least twice (between two and six times) and the resulting waveforms were overlapped to verify the repeatability of results. […]

[5] = tested on: layer of the RNFL nerve fibres; test: Clinical observation: RNFL thickness by SD-OCT; assay type: in vivo, human; conditions: after 6 months of treatment, in addition to hypotensive therapy, 3 patients
Protocol: 12 randomized patients were included in 4 groups: • CIT. GROUP-3 patients treated with citicoline in oral solution 10 ml/die corresponding to 500 mg/die of citicoline, in addition to the hypotensive therapy; • NIC. […] The patients were treated and followed for 6 months. At baseline and after 6 months of treatment complete eye examination including visual acuity, control of the intraocular pressure (IOP) with Goldmann tonometry (GAT); visual field testing, electro-functional and morphological examination were performed. (3) The evaluation of the thickness of the layer of the RNFL nerve fibres was performed with spectral-domain optical coherence tomography SD-OCT (RTVue Model-RT100 version 3.5; Optovue Inc, Fremont, CA, USA). Such analysis allows a tomographic survey of retina capable of highlighting, through high-resolution cross sections, structural details of the cellular layers and of their plexuses and allows a qualitative and quantitative analysis of the retinal alterations. The patients were positioned in front of the instrument and invited to observe a luminous target: the instrument, once the ocular structure to be analysed is focused, performs the scanning.

SMILES | GC/IPL layer thickness [1] | INL layer thickness [1] | RNFL layer thickness [1] | alteration in the thickness of retinal layers [1] | reduction in the width of wave b at ERG [2] | change in MD [3] | MD [3] | PEV P100 IT [4] | RNFL-TO [5]
C[N+](C)(C)CCOP(=O)([O-])OP(=O)(O)OC[C@H]1O[C@@H](n2ccc(N)nc2=O)C(O)C1O (stereo partly drawn) [Citicoline, citidin-5′-difosfocholine] | 59.3 ± 4.8 μm | 20.9 ± 2.5 μm | 22.3 ± 1.3 μm | less reduction in the thickness of the layers | attenuated with respect to Placebo | significant improvement in MD with respect to the baseline | −8.70 (±2.8) | 119.1 (±7.22) ms | 65.0 (±12.0)
NC(=O)c1cccnc1 [Nicotinamide] | 58.8 ± 5.2 μm | 21.1 ± 2.1 μm | 21.8 ± 2.4 μm | less reduction in the thickness of the layers | attenuated with respect to Placebo | lower reduction in the MD value with respect to the not treated group | −8.92 (±2.6)*^ | 119.5 (±7.00) ms | 61.1 (±12.5)
